From patent US20250179126A1, “A NOVEL PEPTIDE FROM A PHOTOSYNTHETIC BACERIUM DIRECTLY TARGETS MITOCHONDRIA TO TRIGGER APOPTOSIS IN ADVANCED PROSTATE CANCER CELLS” (priority 2022, published 2025)

Legend:
[1] = test system: PC3 cells; test: JC-1 mitochondrial membrane potential assay; type: cell-based, human
Description: Cells were stained by using JC-1 Mitochondrial Membrane Potential Assay Kits according to the manufacturer's instructions to measure mitochondrial membrane potential, and fluorescence was measured by flow cytometry. 9B, Caspase-3 is involved in aurB-induced apoptosis. […] The inhibitor was used at the indicated concentrations. Mean±SE (N=3).
JC-1 dye (Invitrogen) was used to determine mitochondrial membrane potential. […] After washing with PBS, trypsinized PC3 cells were incubated with JC-1 dye and analyzed by FACS.

[2] = test system: MCF-7 breast cancer cells; test: MTT cell viability assay, MCF-7 breast cancer cells; type: cell-based, human; settings: MCF-7, 5-100 μM, 24 hr
From the text: Cell viability was detected by MTT assays, and the control (PBS-treated) cells were considered 100% viable. Mean±SE (N=3). *P<0.05, **P<0.01, ***P<0.001.
Cell lines and culture: Human cancer and noncancer (immortalized and nonimmortalized) cell lines were obtained from the American Type Culture Collection [prostate cancer (PC3, DU145 and LNCaP), normal prostate (CRL11611), breast cancer (MCF-7), ovarian cancer (SK-OV3 adenocarcinoma), lung cancer (A549)]. MDD2 breast cancer cells (p53 dominant-negative) were provided courtesy of Dr Andrei V. Gudkov, Roswell Park Cancer Institute. 20 All cell lines were cultured in MEM-E (Invitrogen) supplemented with 10% heat-inactivated fetal bovine serum (Atlanta Biological, Inc.), 100 units/mL penicillin, and 100 μg/mL streptomycin at 37° C. in 5% CO2.
Cytotoxicity assay: The MTT assay was performed as we previously described (Cha et al., Cancer Research 2020, 80: 1615-1623).

[3] = test system: normal prostate CRL11611 cells; test: Annexin-V apoptosis assay by flow cytometry, normal prostate CRL11611; type: cell-based, human; settings: normal CRL11611, 48 hr; Ptxl 1 nM, p28 50 μM, aurA/aurB 0.5-50 μM
Description: FIG. 7A-7D: Determination of apoptotic cell death. Prostate cancer cell lines (7A: LNCaP, 7B: DU145 and 7C: PC3) and normal prostate CRL11611 cells (7D) were exposed to the indicated agents for 48 hr and stained using apoptosis assay kits according to the manufacturer's instructions. The samples were analyzed by flow cytometry. Mean±SE (N=3).
After 48 hr, annexin-V apoptosis assays (Thermo Fisher Scientific) were conducted to detect apoptotic cells. At least 10,000 cells in each case were analyzed by FACS (RRC, UIC).

[4] = test system: PC3 cells; test: Cellular membrane toxicity, LDH leakage assay; type: cell-based, human; settings: PC3, 0.2-200 μM, 37° C.
Description: FIG. 6A-6B: Cellular membrane toxicity assays. […] Cells treated with lysis buffer were defined as having 100% LDH release. Mean±SE (N=3).
Cellular membrane toxicity: LDH assays were performed as we previously described (Cha et al., Cancer Research 2020, 80: 1615-1623).

[5] = test system: PC3 xenograft tumors; test: PC3 xenograft animal model; type: in vivo, athymic mice
From the text: FIG. 10A-10D: Inhibition of PC3 xenograft tumor growth. 10A, When the s.c. tumors reached ˜5 mm, athymic mice were randomized into control (PBS) and i.p. treatment groups. Mean±SE (N=5). *P<0.01. […] 10C, At the end of treatment, tumors were dissected and weighed. * P<0.01. 10D, In sections of tumors from the control group, there was a marked increase in Ki-67-positive proliferating cells (stained brown and counterstained with haematoxylin, ×40), and only a few apoptotic cells were observed, as determined by TUNEL and caspase-3 (Casp-3) staining. There was an apparent sharp reduction in Ki-67-positive proliferating cells and a higher number of TUNEL-positive apoptotic cells in the aurB-treated group compared to the control group. Similarly, Casp-3 expression in aurB-treated tumors was increased markedly compared with that in untreated controls.
Xenograft animal model: Human prostate cancer cells (PC3) were injected s.c. into the right flanks of 5- to 6-week-old male athymic mice 78. When tumors reached 5 mm in diameter, animals were randomized into control and treatment groups. […] All animals were weighed twice a week. At necropsy, tumors were dissected and weighed. Statistical comparisons were performed by one-way analysis of variance (ANOVA) (control vs treatment). Tumor samples were fixed overnight in 10% buffered formalin. Fixation was followed by dehydration, clearing and infiltration. Samples were then embedded in paraffin, and 4 μm sections were cut on a microtome. Ki67 (LabVision) staining was performed on the tissue sections using a Vector Vectastain Elite ABC Kit. The TUNEL assay was performed on the sections using a Millipore Sigma ApopTag® Peroxidase In Situ Apoptosis Detection Kit.

[6] = tumor sections, aurB 5 mg/kg daily i.p.

Substance: LVN GGD DVA AAV NTA AQN NAD ALF VPPP (LVNGGDDVAAAVNTAAQNNADALFVPPP) [aurB]
- change of mitochondrial membrane potential (JC-1) ([1]; PC3, 1 μM): 17%
- change of mitochondrial membrane potential (JC-1) ([1]; PC3, 10 μM): 21%
- change of mitochondrial membrane potential (JC-1) ([1]; PC3, 100 μM): 32%
- effect on mitochondrial membrane potential (JC-1) ([1]; PC3, 1, 10 and 100 μM): dose-dependently increased
- anti-proliferative effect (MTT cell viability) [2]: clear dose-dependent effects
- apoptotic cell death [3]: less extent
- cellular membrane toxicity (LDH release) [4]: Neither aurA nor aurB induced cellular membrane toxicity at any concentrations
- tumor weight ([5]; at end of treatment, aurB 5 mg/kg daily i.p.): significantly decreased tumor weight
- tumor growth inhibition vs PBS control ([5]; end of treatment, four weeks i.p., aurB 5 mg/kg daily, Ptxl 10 mg/kg once a week): ~65%
- antitumor effect on PC3 tumor growth ([5]; four weeks i.p., aurB 5 mg/kg daily, p28 10 mg/kg daily): significantly inhibited
- behavioral change, body weight ([5]; four weeks of i.p. treatment): without inducing either a behavioral change or a loss in body weight
- Ki-67-positive proliferating cells in tumors [5, 6]: substantially reduce the number of proliferating Ki-67-positive cells
- TUNEL-positive apoptotic cells in tumors [5, 6]: number of apoptotic cells was increased
- caspase-3-positive cancer cells in tumors [5, 6]: substantial increase in caspase-3-positive cancer cells
